Values of other authors, collected in US20220273698A1, “MEDICINAL AND/OR PHARMACEUTICAL COMPOSITIONS FOR INTRAVESICAL INSTILLATION, PREPARATION AND USE THEREOF” (priority 2019, published 2022).

Tests used:
[1] = oral medicine
[2] = taking PPS over a long time

- active agent absorbed [1]: 5%
Substance: pentosan polysulfate sodium [Elmiron]
- side effect [2]: pigmentary maculopathy
